Results: patent US20210130420A1, “RECOMBINANT BINDING PROTEINS TARGETING HER2 AND SERUM ALBUMIN, AND THEIR USES” (Molecular Partners AG, priority 2016, published 2021)

How the values were obtained:
BT474 cells = assay: Induction of apoptosis, Caspase 3/7 activation; format: cell-based, human; conditions: FIG. 7
Method: Briefly, 10000 BT474 cells were seeded per well in a 96 well plate in100 μl complete medium and incubated for 24 hours. […] Caspase Glo reagent was added according to the manufactures protocol for 1 hour. Caspase 3/7 activation was monitored by measuring luciferase activity. Alternatively induction of apoptosis was determined using the Cell Death Detection [sequence] system (Roche, Switzerland). The assay was performed according to the manufactures protocol. Cell number and incubations times were similar to the Caspase Glo readout. Data were analyzed using the GraphPad prism software, plotting concentration on the x-axis against OD405/490 nm or relative light units (RLU; measured on a Tecan M-1000 reader) on the y-axis. Data were fitted using a non-linear regression fit (log(agonist) vs. response—Variable slope (four parameters)).

GXA3039 = assay: Gastric cancer patient derived tumor xenograft mouse model GXA3039; format: in vivo; conditions: GXA3039, FIG. 4D; Protein #21 60 mg/kg, antibodies 10 mg/kg, every three days for 6 times
Method: Further, Protein #21 was expressed and purified as described in Example 1. […] All groups were dosed every three days for 6 times. Briefly, tumor fragments were obtained from xenografts in serial passage in nude mice. After removal from donor mice, tumors were cut into fragments (4-5 mm diameter) for subcutaneous implantation. Mice were randomized into groups when tumors reached a volume of approximately 100-120 mm^3. The day of randomization and treatment initiation is designated as day 0 in each experiment. Tumor growth was monitored by two-dimensional measurement with a caliper on the day of randomization and then twice weekly. Relative volumes of individual tumors (individual RTVs) for Day x were calculated by dividing the individual tumor volume on Day x (Tx) by the individual volume of the same tumor on Day 0 (TO) multiplied by 100%. Tumor inhibition for a particular day (T/C in %) was calculated from the ratio of the median RTV values of test versus control groups multiplied by 100%.

AKT [1] = assay: Phospho-proteome mass spectrometry of BT474 cells; format: cell-based, human; conditions: 100 nM, 18 hours
Text: (§1) Protein #21 was expressed and purified as described in Example 1. […] Cells were then subjected to a phospho-proteome mass-spectrometry analysis as described by Britton, D., et al. (Britton, D., Zen, Y., Quaglia, A., Selzer, S., Mitra, VI., Lössner, C., Jung, S., Bohm, G., Schmid, P., Prefot, P., Hoehle, C., Koncarevic, S., Gee, J., Nicholson, R., Ward, M., Castellano, L., Stebbing, J., Zucht, H. D., Sarker, D., Heaton, N., and Pike, I., 2014. PLOS One 9 (3), e90948).

RAF = assay: Phospho-proteome mass spectrometry of BT474 cells; format: cell-based, human; conditions: 100 nM, 18 hours
Text: as §1

RPS6KB1/S6 Kinase = assay: Phospho-proteome mass spectrometry of BT474 cells; format: cell-based, human; conditions: 100 nM, 18 hours
Text: as §1

mTOR = assay: Phospho-proteome mass spectrometry of BT474 cells; format: cell-based, human; conditions: 100 nM, 18 hours
Text: as §1

AKT [2] = assay: Phospho-site specific ELISA, BT474 cells; format: cell-based, human; conditions: 100 nM, 18 hours
HER3 = assay: Phosphorylation state ELISA, BT474 cells; format: cell-based, human; conditions: 100 nM, 18 hours
HER1/EGFR = assay: Phosphorylation state ELISA, BT474 cells; format: cell-based, human; conditions: 100 nM, 18 hours
Foxo3a protein [3] = assay: Cellular levels of Foxo3a protein in BT474 cells; format: cell-based, human; conditions: compared to an exposure to PBS only
Text: as §1
(§2) It is known to the practitioner in the art, that Akt1 phosphorylates Foxo3a, resulting in the degradation of Foxo3a and promotion of cell survival. Inhibition of Act phosphorylation leads to stabilization of Foxo3a and thus increase in Foxo3a levels. At increased levels Foxo3a can translocate to the nucleus and induce apoptosis.

Foxo3a protein [4] = assay: Cellular levels of Foxo3a protein in NCI-N87 cells; format: cell-based; conditions: compared to an exposure to PBS only
Text: as §1, §2

Pertuzumab [reference compound] was tested, and the “induction of apoptosis in BT474 cells” value (BT474 cells) was “did not induce apoptosis”, the “inhibition of tumor growth, second experiment” value (GXA3039) was “significantly less efficacious” and the “AKT S124 phosphorylation” value (AKT [1]) was 1.04 fold change to PBS. For the same substance, the “AKT S129 phosphorylation” value (AKT [1]) was 1.16 fold change to PBS, the “RAF S642 phosphorylation” value (RAF) was 1.2 fold change to PBS and the “RAF T631/T638/T640/T641/S642 phosphorylation” value (RAF) was 1.01 fold change to PBS. The “RPS6KB1/S6Kinase S441/T444/S447 phosphorylation” value (RPS6KB1/S6 Kinase) was 1.02 fold change to PBS, the “RPS6KB1/S6Kinase T444/S447 phosphorylation” value (RPS6KB1/S6 Kinase) was 1.04 fold change to PBS and the “mTOR S2448/S2454 phosphorylation” value (mTOR) was 1.09 fold change to PBS. For the same substance, the “AKT S473 phosphorylation” value (AKT [2]) was 0.73 fold change to PBS, the “HER3 Pan-Phospho-Tyrosine” value (HER3) was 0.78 fold change to PBS and the “HER1/EGFR Pan-Phospho-Tyrosine” value (HER1/EGFR) was 0.68 fold change to PBS. For the same substance, the “increase of cellular levels of Foxo3a protein” value (Foxo3a protein [3]) was 1.21 fold and the “increase of cellular levels of Foxo3a protein” value (Foxo3a protein [4]) was 1.25 fold.
